Broadly, the solubility is how much of the substance goes into solution per volume. A high value points to a readily soluble substance.

Drawing on patent US20230143604A1, “QW DOSING OF GIP RECEPTOR AGONIST PEPTIDE COMPOUNDS AND USES THEREOF” (TAKEDA PHARMACEUTICAL COMPANY LIMITED, priority 2020, published 2023), this text covers solubility for eight compounds.

Starred links: 1 amine or outer side, 2 acyl side, 3 side chain; linkers in the order of their positions; H or OH if unused. Positions of bridges follow the written chain, without caps; N, C: chain ends. Non-standard residues stand in square brackets, D forms with d. Residues, ends and D or L forms follow the SMILES beside them. Groups on a side chain read outwards from the residue. Chains are numbered I, II in the order given. *: point of attachment. C18 diacid = O=C(O)CCCCCCCCCCCCCCCCC(=O)*; C17 diacid = O=C(O)CCCCCCCCCCCCCCCC(=O)*; γGlu = O=C(O)[C@H](CCC(=O)[*:2])N[*:1]; NMeY = CN[C@@H](Cc1ccc(O)cc1)C(=O)O; AEEA = NCCOCCOCC(=O)O; Aib = CC(C)(N)C(=O)O

A short description of this data set: Solubility in phosphate buffer pH 7.4. As for the experimental part: Solubility of the GIPR peptides may be determined by dissolution in a phosphate buffer followed by quantitation using liquid chromatography, for example, High Performance Liquid Chromatogry (HPLC). An illustrative method is provided. For determination of the solubility of the GIPr agonist peptides, 3 mg of peptides are weighted out in a small glass vial. 100 μL of 200 mM Phosphate buffer pH 7.4 are added and the vial is sonicated/votexed as necessary for a maximum of 1 min. […] If insoluble material is observed in the tube the addition of 100 μL of buffer and mixing is repeated until complete dissolution.
3 mg of peptides are weighted out in a small glass vial. 100 uL of 200 mM Phosphate buffer pH 7.4 are added and the vial is sonicated/votexed as necessary for a maximum of 1 min. […] If insoluble material is observed in the tube the addition of 100 uL of buffer and mixing is repeated until complete dissolution.

Setting [1] is: pH 7.4, aqueous buffer, pH 7.4 Phosphate Buffer - Solubility, 200 mM Phosphate buffer pH 7.4.
The mark [2] stands for this setting: pH 7.4, solubility in phosphate buffer at pH 7.4, 200 mM phosphate buffer pH 7.4.

`CC[C@H](C)[C@H](NC(=O)[C@H](CO)NC(=O)[C@H](Cc1ccc(O)cc1)NC(=O)[C@H](CC(=O)O)NC(=O)[C@H](CO)NC(=O)[C@@H](NC(=O)[C@H](Cc1ccccc1)NC(=O)[C@@H](NC(=O)CNC(=O)[C@H](CCC(=O)O)NC(=O)C(C)(C)NC(=O)[C@H](Cc1ccc(O)cc1)NC)[C@@H](C)O)[C@@H](C)CC)C(=O)N[C@@H](C)C(=O)N[C@@H](CCCCNC(=O)CNC(=O)CNC(=O)CNC(=O)CNC(=O)CNC(=O)CC[C@H](NC(=O)CCCCCCCCCCCCCCCCC(=O)O)C(=O)O)C(=O)N[C@@H](CC(=O)O)C(=O)N[C@@H](CCCNC(=N)N)C(=O)NC(C)(C)C(=O)N[C@@H](C)C(=O)N[C@@H](CCC(N)=O)C(=O)NC(C)(C)C(=O)N[C@@H](CC(=O)O)C(=O)N[C@@H](Cc1ccccc1)C(=O)N[C@H](C(=O)N[C@@H](CC(N)=O)C(=O)N[C@@H](Cc1c[nH]c2ccccc12)C(=O)N[C@@H](CC(C)C)C(=O)N[C@@H](CC(C)C)C(=O)N[C@@H](C)C(=O)N[C@@H](CCC(N)=O)C(=O)N[C@@H](CCCNC(=N)N)C(=O)N1CCC[C@H]1C(=O)N[C@@H](CO)C(=O)N[C@@H](CO)C(=O)NCC(=O)N[C@@H](C)C(=O)N1CCC[C@H]1C(=O)N1CCC[C@H]1C(=O)N1CCC[C@H]1C(=O)N[C@@H](CO)C(N)=O)C(C)C` [Compound 24] showed a solubility under setting [1] of no less than 30 mg/mL and a solubility under setting [2] of no less than 15 mg/mL.

For `CC[C@H](C)[C@H](NC(=O)[C@H](Cc1ccccc1)NC(=O)[C@@H](NC(=O)CNC(=O)[C@H](CCC(=O)O)NC(=O)C(C)(C)NC(=O)[C@@H](N)Cc1ccc(O)cc1)[C@@H](C)O)C(=O)N[C@@H](CO)C(=O)N[C@@H](CC(=O)O)C(=O)N[C@@H](Cc1ccc(O)cc1)C(=O)N[C@@H](CO)C(=O)N[C@H](C(=O)NC(C)(C)C(=O)N[C@@H](CC(C)C)C(=O)N[C@@H](CC(=O)O)C(=O)N[C@@H](CCCCN)C(=O)N[C@@H](C)C(=O)N[C@@H](CCCCNC(=O)COCCOCCNC(=O)COCCOCCNC(=O)CC[C@H](NC(=O)CCCCCCCCCCCCCCCCC(=O)O)C(=O)O)C(=O)N[C@@H](CCC(N)=O)C(=O)N[C@@H](CCC(N)=O)C(=O)N[C@@H](CC(=O)O)C(=O)N[C@@H](Cc1ccccc1)C(=O)N[C@H](C(=O)N[C@@H](CC(N)=O)C(=O)N[C@@H](Cc1c[nH]c2ccccc12)C(=O)N[C@@H](CC(C)C)C(=O)N[C@@H](CC(C)C)C(=O)N[C@@H](C)C(=O)N[C@@H](CCC(N)=O)C(=O)N[C@@H](CCCNC(=N)N)C(=O)NCC(=O)O)C(C)C)[C@@H](C)CC` [Compound 170] (H-Y[Aib]EGTFISDYSI[Aib]LDKAK([AEEA-AEEA-γGlu-C18 diacid])QQDFVNWLLAQRG-OH), the solubility was no less than 15 mg/mL (pH 7.4) and no less than 30 mg/mL (pH 7.4, aqueous buffer).

In the case of `CC[C@H](C)[C@H](NC(=O)[C@H](CO)NC(=O)[C@H](Cc1ccc(O)cc1)NC(=O)[C@H](CC(=O)O)NC(=O)[C@H](CO)NC(=O)[C@@H](NC(=O)[C@H](Cc1ccccc1)NC(=O)[C@@H](NC(=O)CNC(=O)[C@H](CCC(=O)O)NC(=O)C(C)(C)NC(=O)[C@H](Cc1ccc(O)cc1)NC)[C@@H](C)O)[C@@H](C)CC)C(=O)N[C@@H](C)C(=O)N[C@@H](CCCCNC(=O)CNC(=O)CNC(=O)CNC(=O)CNC(=O)CNC(=O)CCCCCCCCCCCCCCCCC(=O)O)C(=O)N[C@@H](CC(=O)O)C(=O)N[C@@H](CCCCN)C(=O)NC(C)(C)C(=O)N[C@@H](Cc1c[nH]cn1)C(=O)N[C@@H](CCC(N)=O)C(=O)NC(C)(C)C(=O)N[C@@H](CC(N)=O)C(=O)N[C@@H](Cc1ccccc1)C(=O)N[C@H](C(=O)N[C@@H](CC(N)=O)C(=O)N[C@@H](Cc1c[nH]c2ccccc12)C(=O)N[C@@H](CC(C)C)C(=O)N[C@@H](CC(C)C)C(=O)N[C@@H](C)C(=O)N[C@@H](CCC(N)=O)C(=O)N[C@@H](CCCCN)C(=O)NCC(=O)N[C@@H](CCCCN)C(=O)N[C@@H](CCCCN)C(=O)N[C@@H](CC(N)=O)C(=O)N[C@@H](CC(N)=O)C(=O)N[C@@H](Cc1c[nH]c2ccccc12)C(=O)N[C@@H](CCCCN)C(=O)N[C@@H](Cc1c[nH]cn1)C(=O)N[C@@H](CC(N)=O)C(N)=O)C(C)C` [Compound 281], under “pH 7.4, aqueous buffer”, the solubility was less than 15 mg/mL.

For “I: H-[NMeY][Aib]EGTFISDYSIALDR[Aib]KQ[Aib]DFVNWLLAQSPSSGAPPPS-OH / II: {C18 diacid}-PAPAPGG (amide I:18-II:C) [Compound 102]”, the solubility is no less than 60 mg/mL under setting [1] and no less than 15 mg/mL under setting [2].

On to `CC[C@H](C)[C@H](NC(=O)[C@H](CCCCN)NC(=O)[C@H](CC(=O)O)NC(=O)[C@H](CC(C)C)NC(=O)[C@H](C)NC(=O)[C@@H](NC(=O)[C@H](CO)NC(=O)[C@H](Cc1ccc(O)cc1)NC(=O)[C@H](CC(=O)O)NC(=O)[C@H](CO)NC(=O)[C@@H](NC(=O)[C@H](Cc1ccccc1)NC(=O)[C@@H](NC(=O)CNC(=O)[C@H](CCC(=O)O)NC(=O)C(C)(C)NC(=O)[C@@H](N)Cc1ccc(O)cc1)[C@@H](C)O)[C@@H](C)CC)[C@@H](C)CC)C(=O)N[C@@H](C)C(=O)N[C@@H](CCC(N)=O)C(=O)N[C@@H](CCC(N)=O)C(=O)N[C@@H](CCCCNC(=O)COCCOCCNC(=O)COCCOCCNC(=O)CC[C@H](NC(=O)CC[C@H](NC(=O)CCCCCCCCCCCCCCCC(=O)O)C(=O)O)C(=O)O)C(=O)N[C@@H](Cc1ccccc1)C(=O)N[C@H](C(=O)N[C@@H](CCC(=O)O)C(=O)N[C@@H](Cc1c[nH]c2ccccc12)C(=O)N[C@@H](CC(C)C)C(=O)N[C@@H](CC(C)C)C(=O)N[C@@H](C)C(=O)N[C@@H](CCC(N)=O)C(=O)N[C@@H](CCCNC(=N)N)C(=O)N1CCC[C@H]1C(=O)N[C@@H](CO)C(=O)N[C@@H](CO)C(=O)NCC(=O)N[C@@H](C)C(=O)N1CCC[C@H]1C(=O)N1CCC[C@H]1C(=O)N1CCC[C@H]1C(=O)N[C@@H](CO)C(=O)O)C(C)C` [Compound 134] (H-Y[Aib]EGTFISDYSIALDKIAQQK([AEEA-AEEA-γGlu-γGlu-C17 diacid])FVEWLLAQRPSSGAPPPS-OH), for which the solubility reads like this: under setting [1], no less than 30 mg/mL; under setting [2], no less than 15 mg/mL.

`CC[C@H](C)[C@H](NC(=O)[C@H](CO)NC(=O)[C@H](Cc1ccc(O)cc1)NC(=O)[C@H](CC(=O)O)NC(=O)[C@H](CO)NC(=O)[C@@H](NC(=O)[C@H](Cc1ccccc1)NC(=O)[C@@H](NC(=O)CNC(=O)[C@H](CCC(=O)O)NC(=O)C(C)(C)NC(=O)[C@H](Cc1ccc(O)cc1)NC)[C@@H](C)O)[C@@H](C)CC)C(=O)N[C@@H](C)C(=O)N[C@@H](CCCCNC(=O)CNC(=O)CNC(=O)CNC(=O)CNC(=O)CNC(=O)CCCCCCCCCCCCCCCCC(=O)O)C(=O)N[C@@H](CC(=O)O)C(=O)N[C@@H](CCCNC(=N)N)C(=O)NC(C)(C)C(=O)N[C@@H](C)C(=O)N[C@@H](CCC(N)=O)C(=O)NC(C)(C)C(=O)N[C@@H](CC(=O)O)C(=O)N[C@@H](Cc1ccccc1)C(=O)N[C@H](C(=O)N[C@@H](CC(N)=O)C(=O)N[C@@H](Cc1c[nH]c2ccccc12)C(=O)N[C@@H](CC(C)C)C(=O)N[C@@H](CC(C)C)C(=O)N[C@@H](C)C(=O)N[C@@H](CCC(N)=O)C(=O)N[C@@H](CCCNC(=N)N)C(=O)N1CCC[C@H]1C(=O)N[C@@H](CO)C(=O)N[C@@H](CO)C(=O)NCC(=O)N[C@@H](C)C(=O)N1CCC[C@H]1C(=O)N1CCC[C@H]1C(=O)N1CCC[C@H]1C(=O)N[C@@H](CO)C(N)=O)C(C)C` [Compound 274]: the solubility under setting [1] is no less than 10 mg/mL.

For the compound `CC[C@H](C)[C@H](NC(=O)[C@H](Cc1ccccc1)NC(=O)[C@@H](NC(=O)CNC(=O)[C@H](CCC(=O)O)NC(=O)C(C)(C)NC(=O)[C@H](Cc1ccc(O)cc1)NC)[C@@H](C)O)C(=O)N[C@@H](CO)C(=O)N[C@@H](CC(=O)O)C(=O)N[C@@H](Cc1ccc(O)cc1)C(=O)N[C@@H](CO)C(=O)N[C@H](C(=O)NC(C)(C)C(=O)N[C@@H](CCCCNC(=O)CNC(=O)CNC(=O)CNC(=O)CNC(=O)CNC(=O)CCCCCCCCCCCCCCCCC(=O)O)C(=O)N[C@@H](CC(=O)O)C(=O)N[C@@H](CCCNC(=N)N)C(=O)NC(C)(C)C(=O)N[C@@H](C)C(=O)N[C@@H](CCC(N)=O)C(=O)NC(C)(C)C(=O)N[C@@H](CC(N)=O)C(=O)N[C@@H](Cc1ccccc1)C(=O)N[C@H](C(=O)N[C@@H](CC(N)=O)C(=O)N[C@@H](Cc1c[nH]c2ccccc12)C(=O)N[C@@H](CC(C)C)C(=O)N[C@@H](CC(C)C)C(=O)N[C@@H](C)C(=O)N[C@@H](CCC(N)=O)C(=O)N[C@@H](CO)C(=O)N1CCC[C@H]1C(=O)N[C@@H](CO)C(=O)N[C@@H](CO)C(=O)NCC(=O)N[C@@H](C)C(=O)N1CCC[C@H]1C(=O)N1CCC[C@H]1C(=O)N1CCC[C@H]1C(=O)N[C@@H](CO)C(N)=O)C(C)C)[C@@H](C)CC` [Compound 275], the solubility under setting [1] was less than 15 mg/mL.

In turn, `CC[C@H](C)[C@H](NC(=O)[C@H](CO)NC(=O)[C@H](Cc1ccc(O)cc1)NC(=O)[C@H](CC(=O)O)NC(=O)[C@H](CO)NC(=O)[C@@H](NC(=O)[C@H](Cc1ccccc1)NC(=O)[C@@H](NC(=O)CNC(=O)[C@H](CCC(=O)O)NC(=O)C(C)(C)NC(=O)[C@H](Cc1ccc(O)cc1)NC)[C@@H](C)O)[C@@H](C)CC)C(=O)N[C@@H](C)C(=O)N[C@@H](CCCCNC(=O)COCCOCCNC(=O)COCCOCCNC(=O)CC[C@H](NC(=O)CC[C@H](NC(=O)CCCCCCCCCCCCCCCC(=O)O)C(=O)O)C(=O)O)C(=O)N[C@@H](CC(=O)O)C(=O)N[C@@H](CCCNC(=N)N)C(=O)NC(C)(C)C(=O)N[C@@H](C)C(=O)N[C@@H](CCC(N)=O)C(=O)NC(C)(C)C(=O)N[C@@H](CC(N)=O)C(=O)N[C@@H](Cc1ccccc1)C(=O)N[C@H](C(=O)N[C@@H](CC(N)=O)C(=O)N[C@@H](Cc1c[nH]c2ccccc12)C(=O)N[C@@H](CC(C)C)C(=O)N[C@@H](CC(C)C)C(=O)N[C@@H](C)C(=O)N[C@@H](CCC(N)=O)C(=O)N[C@@H](CCCNC(=N)N)C(=O)O)C(C)C` [Compound 7] (H-[NMeY][Aib]EGTFISDYSIAK([AEEA-AEEA-γGlu-γGlu-C17 diacid])DR[Aib]AQ[Aib]NFVNWLLAQR-OH) had a solubility (pH 7.4) of no less than 15 mg/mL and a solubility (pH 7.4, aqueous buffer) of no less than 30 mg/mL.
